One test has as its system NCI-H929 target cells. Briefly: ACTR T-cell proliferation (live CD3+ T cell count, flow cytometry, 7 days). The following applies: ACTR variant SEQ ID NO: 1, E:T 1:1, hSG16.17 SEA 1 μg/mL, absence or presence of lenalidomide 1 μM, 7 day. The format is cell-based, human. The procedure:
(§1) T-cells expressing ACTR variant SEQ ID NO: 1 (effector; E) and target cells (target; T) were incubated at a 1:1, effector-to-target ratio (30,000 T cells; 30,000 target cells) with increasing concentrations of humanized afucosylated (SEA) BCMA antibody in a 200-μL reaction volume in RPMI 1640 media supplemented with 10% fetal bovine serum and 25 U/mL IL2. Reactions were incubated in a CO2 (5%) incubator at 37 degrees C. for 7 days. The number of live CD3+ T-cells were determined at day 1 and day 7 and compared to the input number of T-cells (dotted line). Briefly, at day 1 and day 7, cells were washed twice in staining buffer before being stained with a Live/Dead eFluor-780 dye for 30 min at 4 degrees C. […] After staining, cells were washed twice again with staining buffer and staining was subsequently detected via flow cytometry. […]
Mock T cells or ACTR T cells (effector; E) and target cells (target; T) were incubated at a 1:1, effector-to-target cell ratio (30,000 target cells) with increasing concentration of humanized afucosylated anti-BCMA antibody (hSG16.17SEA) in a 200-μL reaction volume in RPMI 1640 media supplemented with 10% fetal bovine serum. […] The counts of live CD3+ T cells were determined at day 7. […] After staining, cells were washed twice again with staining buffer and staining was subsequently detected via flow cytometry. […]
Background: Flow cytometry measures light scatter and fluorescence of single cells or particles in a stream.

For the next test, the system named is RPMI-8226 target cells. The description is as above. The test is classed as cell-based, human. The conditions noted are these: ACTR variant SEQ ID NO: 1, E:T 1:1, hSG16.17 SEA 1 μg/mL, absence or presence of lenalidomide 1 μM, 7 day. On the procedure:
as §1
Mock or ACTR T cells (effector; E) and target cells (target; T) were incubated at a 1:1, effector-to-target cell ratio in the presence and absence of the anti-BCMA antibody, hSG16.17 SEA (1 μg/mL). […] The total CD3+ T cell count was determined by flow cytometry after a 7 day incubation in a CO2 (5%) incubator. […] After staining, cells were washed twice with staining buffer and detected via flow cytometry. […]

The record followed here is patent publication US20190381171A1, “CO-USE OF ANTI-BCMA ANTIBODY AND ANTIBODY-COUPLED T CELL RECEPTOR (ACTR) IN CANCER THERAPY AND B CELL DISORDERS” (UNUM THERAPEUTICS INC., priority 2017, published 2019).

Turning to `Nc1cccc2c1CN(C1CCC(=O)NC1=O)C2=O` (centres unmarked) [Lenalidomide, lenalidomide, reference compound], the “CD3+ T cell count” value with NCI-H929 target cells and in the test on RPMI-8226 target cells was “further enhanced the proliferation” each time.
